Source: PMC8316002, “Inhibition of Escherichia coli Lipoprotein Diacylglyceryl Transferase Is Insensitive to Resistance Caused by Deletion of Braun’s Lipoprotein” (Journal of Bacteriology, 2021)
In brackets after ≈: the same amount, converted by molar mass. Like-named read-outs stand apart in the source and are kept apart here. Where a SMILES comes first, the peptide text is derived from it. Bridges are numbered along the chain shown (N, C = ends). [ ]: non-standard residue; d: D form. Bip = N[C@@H](Cc1ccc(-c2ccccc2)cc1)C(=O)O; NMeF = CN[C@@H](Cc1ccccc1)C(=O)O

Experiments:
CFT073 + EDTA = assay: microbe, parasite or virus in culture; assay type: cell-based, E. coli; conditions: average of at least four independent experiments in duplicates
Experimental: (§1) Unless stated otherwise, E. coli cells were grown in Luria-Bertani (LB) medium (0.5% yeast extract, 1% tryptone, 0.5% NaCl) at 37°C. Where indicated, kanamycin (Kan) was added to culture media at a 50-μg/ml final concentration. MIC assays were performed based on Clinical and Laboratory Standards Institute (CLSI) guidelines. For in vitro growth curves, overnight cultures of WT CFT073, CFT073 Δlgt, and CFT073 Δlgt complemented with lgt from E. coli (lgt^Ec) or P. aeruginosa (lgt^Pa) were grown to mid-exponential phase (optical density at 600 nm [OD600] of 0.6) and then diluted to an OD600 of 0.1 to initiate growth curves. At various times, culture aliquots were diluted and plated in dilutions on LB+Kan agar, and CFU were enumerated in duplicates. Growth of MG1655 inducible deletion strains was measured by culturing in the presence of 2-fold dilutions of arabinose (starting arabinose concentrations for CFT073 and MG1655 inducible deletion strains were 4% and 0.8%, respectively). While […] was sufficient for WT growth of MG1655 Δlgt, 4% arabinose was used for CFT073 Δlgt based on comparing its growth to that of WT CFT073 as measured by CFU. OD600 growth measurements were performed using an EnVision 2101 multilabel reader plate reader (PerkinElmer) linked with Echo liquid handler (Labcyte). For time-kill experiments, bacteria were harvested in mid-exponential phase and treated with 12.5 μM G2824, 3.2 μM globomycin, and 1.6 μM vancomycin. CFU were enumerated at various times posttreatment. Bacterial culture medium containing 2% arabinose was used to induce lpp or lppΔK expression from pBad24 plasmids. Bacterial viability at different time points during the treatment was measured by enumerating CFU. Serum killing assays were carried out as previously described ([17]).

CFT073 imp4213 Δlpp = assay: microbe, parasite or virus in culture; assay type: cell-based, E. coli
Experimental: as §1

CFT073 imp4213 = assay: microbe, parasite or virus in culture; assay type: cell-based, E. coli; conditions: average of at least four independent experiments in duplicates
Experimental: as §1

CFT073 Δlpp + EDTA = assay: microbe, parasite or virus in culture; assay type: cell-based, E. coli
Experimental: as §1

CFT073 Δlpp = assay: microbe, parasite or virus in culture; assay type: cell-based, E. coli
Experimental: as §1

CFT073 = assay: microbe, parasite or virus in culture; assay type: cell-based, E. coli; conditions: average of at least four independent experiments in duplicates
Experimental: as §1

MG1655 + EDTA = assay: microbe, parasite or virus in culture; assay type: cell-based, E. coli; conditions: average of at least four independent experiments in duplicates
Experimental: as §1

MG1655 Δlpp + EDTA = assay: microbe, parasite or virus in culture; assay type: cell-based, E. coli
Experimental: as §1

MG1655 Δlpp = assay: microbe, parasite or virus in culture; assay type: cell-based, E. coli
Experimental: as §1

MG1655 = assay: microbe, parasite or virus in culture; assay type: cell-based, E. coli; conditions: average of at least four independent experiments in duplicates
Experimental: as §1

[1] = tested on: A. baumannii 19606 + EDTA; assay: microbe, parasite or virus in culture; assay type: cell-based; conditions: average of two independent experiments in duplicates
Experimental: as §1

A. baumannii 19606 = assay: microbe, parasite or virus in culture; assay type: cell-based; conditions: average of two independent experiments in duplicates
Experimental: as §1

P. aeruginosa PA14 = assay: microbe, parasite or virus in culture; assay type: cell-based; conditions: average of two independent experiments in duplicates
Experimental: as §1

S. aureus USA300 = assay: microbe, parasite or virus in culture; assay type: cell-based
Experimental: as §1

PA14 + EDTA = assay: microbe, parasite or virus in culture; assay type: cell-based, P. aeruginosa; conditions: average of two independent experiments in duplicates
Experimental: as §1

in vitro = assay type: cell-based; conditions: human, representative of three independent replicates, read-out: EC50, mammalian cytotoxicity
Source text: TABLE 2 Growth inhibition of a panel of bacterial strains and eukaryotic cells by G9066, G2824, globomycin, and vancomycin | column: MIC or EC50 (μM)^a / G9066; MIC or EC50 (μM)^a / G2824; MIC or EC50 (μM)^a / Globomycin; MIC or EC50 (μM)^a / Vancomycin

[2] = CFT073 imp4213 Δlpp, average of at least four independent experiments in duplicates
[3] = CFT073 Δlpp + EDTA, average of at least four independent experiments in duplicates
[4] = CFT073 Δlpp, average of at least four independent experiments in duplicates
[5] = MG1655 Δlpp + EDTA, average of at least four independent experiments in duplicates
[6] = MG1655 Δlpp, average of at least four independent experiments in duplicates
[7] = S. aureus USA300, average of two independent experiments in duplicates
[8] = Escherichia coli, read-out: MIC

SMILES	MIC (CFT073 + EDTA)	MIC (CFT073 imp4213 Δlpp; [2])	MIC (CFT073 imp4213)	MIC (CFT073 Δlpp + EDTA; [3])	MIC (CFT073 Δlpp; [4])	MIC (CFT073)	MIC (CFT073; read-out: MIC)	MIC (MG1655 + EDTA)	MIC (MG1655 Δlpp + EDTA; [5])	MIC (MG1655 Δlpp; [6])	MIC (MG1655)	MIC (MG1655; read-out: MIC)	MIC [1]	MIC (A. baumannii 19606)	MIC (P. aeruginosa PA14)	MIC (S. aureus USA300; [7])	MIC (PA14 + EDTA)	EC50 (in vitro; 293T)	EC50 (in vitro; Hela)	EC50 (in vitro; HepG2)	also measured
CN1C(=O)[C@H](Cc2ccc(-c3ccccc3)cc2)NC(=O)CNC(=O)[C@H](CC(=O)O)NC(=O)[C@@H](Cc2ccccc2)NC(=O)CSC[C@@H](C(=O)NCC(=O)N[C@@H](CCCCN)C(=O)N[C@@H](CCCCN)C(N)=O)NC(=O)[C@H](CCCNC(=N)N)NC(=O)[C@H](CO)NC(=O)[C@H](Cc2ccc(-c3ccccc3)cc2)NC(=O)[C@@H]1Cc1ccccc1 [G2824] ({CH2CO}-[dF]DG[Bip][NMeF][Bip]SRCGKK-NH2; thioether N-9)	3.1 µM (≈ 5.1 µg/mL)	8.9 µM (≈ 14.6 µg/mL)	8.4 µM (≈ 13.8 µg/mL)	2.3 µM	62.5 µM (≈ 103 µg/mL)	~100 µM (≈ 164 µg/mL)	92 µM (≈ 151 µg/mL)	3.1 µM (≈ 5.1 µg/mL)	3.1 µM	62.5 µM (≈ 103 µg/mL)	~100 µM (≈ 164 µg/mL)	93.8 µM (≈ 154 µg/mL)	6.3 µM (≈ 10.4 µg/mL)	37.5 µM (≈ 61.6 µg/mL)	>100 µM	>100 µM	6.3 µM (≈ 10.4 µg/mL)	> 100 µM	> 100 µM	> 100 µM	–
CN1C(=O)[C@H](Cc2ccc(-c3ccccc3)cc2)NC(=O)CNC(=O)[C@H](CCCNC(=N)N)NC(=O)[C@@H](Cc2ccccc2)NC(=O)CSC[C@@H](C(=O)NCC(N)=O)NC(=O)[C@H](CCCNC(=N)N)NC(=O)[C@H](CO)NC(=O)[C@H](Cc2ccc(-c3ccccc3)cc2)NC(=O)[C@@H]1Cc1ccccc1 [G9066] ({CH2CO}-[dF]RG[Bip][NMeF][Bip]SRCG-NH2; thioether N-9)	3.1 µM (≈ 4.43 µg/mL)	6.8 µM (≈ 9.72 µg/mL)	5.7 µM (≈ 8.14 µg/mL)	1.6 µM	31.3 µM (≈ 44.7 µg/mL)	~100 µM (≈ 143 µg/mL)	–	3.1 µM (≈ 4.43 µg/mL)	3.1 µM	31.3 µM (≈ 44.7 µg/mL)	~100 µM (≈ 143 µg/mL)	>100 µM	3.1 µM (≈ 4.43 µg/mL)	37.5 µM (≈ 53.6 µg/mL)	>100 µM	6.3 µM (≈ 9 µg/mL)	6.3 µM (≈ 9 µg/mL)	> 100 µM	> 100 µM	> 100 µM	–
CCCCCC[C@H]1OC(=O)CNC(=O)[C@H]([C@H](C)O)NC(=O)[C@H](CO)NC(=O)[C@H]([C@H](C)CC)NC(=O)[C@H](CC(C)C)N(C)C(=O)[C@@H]1C [Globomycin]	1.1 µM (≈ 0.721 µg/mL)	11.5 µM (≈ 7.54 µg/mL)	0.5 µM (≈ 0.328 µg/mL)	4.7 µM	>100 µM	–	29.2 µM (≈ 19.2 µg/mL)	0.8 µM (≈ 0.525 µg/mL)	12.5 µM	50 µM (≈ 32.8 µg/mL)	–	25 µM (≈ 16.4 µg/mL)	0.6 µM (≈ 0.394 µg/mL)	25 µM (≈ 16.4 µg/mL)	>100 µM	>100 µM	50 µM (≈ 32.8 µg/mL)	> 100 µM	> 100 µM	> 100 µM	effect of lpp deletion on growth inhibition, CFT073, in words (CFT073 Δlpp; CFT073 Δlpp versus WT): resistant; effect of lpp deletion on growth inhibition, MG1655, in words (MG1655 Δlpp; MG1655 Δlpp versus WT): resistant
CN[C@H](CC(C)C)C(=O)N[C@H]1C(=O)N[C@@H](CC(N)=O)C(=O)N[C@H]2C(=O)N[C@H]3C(=O)N[C@H](C(=O)N[C@H](C(=O)O)c4cc(O)cc(O)c4-c4cc3ccc4O)[C@H](O)c3ccc(c(Cl)c3)Oc3cc2cc(c3O[C@@H]2O[C@H](CO)[C@@H](O)[C@H](O)[C@H]2O[C@H]2C[C@](C)(N)[C@H](O)[C@H](C)O2)Oc2ccc(cc2Cl)[C@H]1O [Vancomycin]	–	–	–	–	–	–	–	–	–	–	–	–	–	–	–	–	–	> 100 µM	> 100 µM	> 100 µM	MIC (CFT073 + EDTA; Escherichia coli): 0.8 µM (≈ 1.16 µg/mL); MIC (CFT073 imp4213 Δlpp; Escherichia coli): 0.7 µM (≈ 1.01 µg/mL); MIC (CFT073 imp4213; Escherichia coli): 0.6 µM (≈ 0.87 µg/mL); MIC (CFT073 Δlpp + EDTA; Escherichia coli): 0.8 µM (≈ 1.16 µg/mL); MIC (CFT073 Δlpp; Escherichia coli): > 100 µM; MIC (CFT073; [8]): > 100 µM; MIC (MG1655 + EDTA; Escherichia coli): 3.1 µM (≈ 4.49 µg/mL); MIC (MG1655 Δlpp + EDTA; Escherichia coli, MG1655): 0.8 µM (≈ 1.16 µg/mL); MIC (MG1655 Δlpp; Escherichia coli, MG1655): > 100 µM; MIC (MG1655; [8]): > 100 µM; MIC ([1]; Acinetobacter baumannii): 0.2 µM (≈ 0.29 µg/mL); MIC (A. baumannii 19606; Acinetobacter baumannii): > 100 µM; MIC (P. aeruginosa PA14; Pseudomonas aeruginosa): > 100 µM; MIC (S. aureus USA300; Staphylococcus aureus, USA300): 0.4 µM (≈ 0.58 µg/mL); MIC (PA14 + EDTA; Pseudomonas aeruginosa): 6.3 µM (≈ 9.13 µg/mL)
